Where two headings read alike, the source gives them in different places.
Key:
[1] = target: T1, CYP3A4 (Homo sapiens, UniProt P08684); test: Spectral binding; settings: for Type of spectral binding with CYP3A4: no ethanol; for δAmax (maximum spectral change): 0.5 µM CYP3A4, 25°C, pH 7.4; for Type of spectral binding with CYP3A4 at low concentrations: low concentrations (<0.5 µM), data not shown
[2] = target: T1, CYP3A4; settings: ref Kumar et al., 2010; cited from earlier work

T1 sequence (P08684 whole entry): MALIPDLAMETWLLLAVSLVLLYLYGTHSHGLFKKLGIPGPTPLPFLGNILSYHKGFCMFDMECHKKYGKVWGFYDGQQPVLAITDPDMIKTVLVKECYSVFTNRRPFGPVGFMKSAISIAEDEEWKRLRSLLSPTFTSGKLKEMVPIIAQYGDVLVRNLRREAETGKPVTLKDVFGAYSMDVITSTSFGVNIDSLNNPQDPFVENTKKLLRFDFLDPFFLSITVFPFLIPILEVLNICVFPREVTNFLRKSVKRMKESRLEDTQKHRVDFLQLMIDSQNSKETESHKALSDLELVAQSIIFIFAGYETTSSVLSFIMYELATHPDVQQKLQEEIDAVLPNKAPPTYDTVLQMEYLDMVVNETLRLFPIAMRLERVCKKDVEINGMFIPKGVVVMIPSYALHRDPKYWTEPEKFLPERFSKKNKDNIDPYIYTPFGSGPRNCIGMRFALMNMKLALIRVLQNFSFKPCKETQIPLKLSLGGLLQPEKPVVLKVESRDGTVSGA

SMILES	Type of spectral binding with CYP3A4 [1]	δAmax (maximum spectral change) ([1]; 20 mM ethanol)	δAmax (maximum spectral change) ([1]; No ethanol)	Type of spectral binding with CYP3A4 at low concentrations [1]	Type of spectral binding with CYP3A4 [2]
CC(C)CN(C[C@@H](O)[C@H](Cc1ccccc1)NC(=O)O[C@H]1CCOC1)S(=O)(=O)c1ccc(N)cc1 [Amprenavir]	did not show detectable spectral binding	–	–	–	–
CCO [ethanol]	–	–	–	–	type I
Cc1c(O)cccc1C(=O)N[C@@H](CSc1ccccc1)[C@H](O)CN1C[C@H]2CCCC[C@H]2C[C@H]1C(=O)NC(C)(C)C [nelfinavir]	–	–	–	–	high-affinity type I

More lines, main results first:

Type of spectral binding with CYP3A4 [1]	δAmax (maximum spectral change) ([1]; 20 mM ethanol)	δAmax (maximum spectral change) ([1]; No ethanol)	Type of spectral binding with CYP3A4 at low concentrations [1]	SMILES	Type of spectral binding with CYP3A4 [2]
type I	0.012 ± 0.0002	0.013 ± 0.0003	weak type II	COC(=O)N[C@H](C(=O)N[C@@H](Cc1ccccc1)[C@@H](O)CN(Cc1ccc(-c2ccccn2)cc1)NC(=O)[C@@H](NC(=O)OC)C(C)(C)C)C(C)(C)C [Atazanavir]	–
type I	0.006 ± 0.0003	0.011 ± 0.0001	–	CC(C)(C)NC(=O)[C@@H]1C[C@@H]2CCCC[C@@H]2CN1C[C@@H](O)[C@H](Cc1ccccc1)NC(=O)[C@H](CC(N)=O)NC(=O)c1ccc2ccccc2n1 [Saquinavir]	–
type I	0.012 ± 0.0003	0.015 ± 0.0003	weak type II	CCC[C@@]1(CCc2ccccc2)CC(O)=C([C@H](CC)c2cccc(NS(=O)(=O)c3ccc(C(F)(F)F)cn3)c2)C(=O)O1 [Tipranavir]	–
